Measured values reported in paper PMC6594366 (Journal of the American Chemical Society, 2018).

Molecular target: human serum albumin (HSA) (Homo sapiens, UniProt P02768)
Assay: fluorescent probe displaced from HSA by GdLx
Format: binding

Chain of human serum albumin (HSA) (P02768 25-609): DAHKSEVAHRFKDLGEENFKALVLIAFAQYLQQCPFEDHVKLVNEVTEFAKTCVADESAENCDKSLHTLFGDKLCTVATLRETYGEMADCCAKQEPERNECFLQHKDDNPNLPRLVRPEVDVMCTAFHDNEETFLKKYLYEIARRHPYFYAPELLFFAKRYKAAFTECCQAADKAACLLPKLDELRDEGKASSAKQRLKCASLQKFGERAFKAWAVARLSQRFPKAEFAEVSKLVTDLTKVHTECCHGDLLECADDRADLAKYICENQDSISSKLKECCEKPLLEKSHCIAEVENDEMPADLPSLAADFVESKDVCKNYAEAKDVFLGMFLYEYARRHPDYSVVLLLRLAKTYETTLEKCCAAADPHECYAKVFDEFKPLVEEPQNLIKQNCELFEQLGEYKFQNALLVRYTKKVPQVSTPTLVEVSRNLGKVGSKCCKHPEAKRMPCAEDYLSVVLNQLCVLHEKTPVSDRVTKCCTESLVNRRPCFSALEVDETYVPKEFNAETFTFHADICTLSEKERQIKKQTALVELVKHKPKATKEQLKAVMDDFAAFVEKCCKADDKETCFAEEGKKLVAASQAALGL

For `CN(C)c1cccc2c(S(=O)(=O)NCC(=O)O)cccc12` [dansylglycine], the “fluorescent probe displaced from HSA by GdLx” value was “Determined by displacement of fluorescent dansylglycine from HSA upon addition of GdLx”.
